Source: the supplement of paper PMC8837787

System: Saccharomyces cerevisiae ABC16-Green Monster
Assay: growth inhibition at single dose (up to 150 µM), below the 70% cut-off for dose-response; higher = more potent
Conditions: 18 h; 30 °C; YPD
In short: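 The entry is percent growth inhibition of drug-sensitive S. cerevisiae ABC16-Green Monster cells. After overnight growth in YPD at 30 °C, cells were diluted to OD600 0.1–0.2 and exposed to each library compound at 150 µM in 200 µl per well, in biological duplicates with untreated cultures beside them, and OD600 was read at 0 h and after 18 h at 30 °C. Any compound under 70% in both replicates was not carried to dose-response.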

| SMILES | growth inhibition at single dose [%] |
| --- | --- |
| NCCC(O)C(=O)N[C@@H]1C[C@H](N)[C@@H](OC2O[C@H](CN)[C@@H](O)[C@H](O)[C@H]2O)[C@H](O)C1OC1O[C@H](CO)[C@@H](O)[C@H](N)[C@H]1O (stereo partly drawn) | < 70 |
| COc1cc(NC(C)CCCN)c2ncccc2c1 (stereo not drawn) | < 70 |
| CCN(CC)S(=O)(=O)c1ccc(OC(C)C)c(NC(=O)C2=CN3CCS(=O)(=O)N=C3C=C2)c1 | < 70 |
| O=C(NCCc1c[nH]c2ccccc12)c1cc2ccccc2oc1=O | < 70 |
| CC(=O)NC(C)CCc1ccc(-c2csc(-c3ccc(NC(=O)C4CC4)cc3)n2)cc1 (stereo not drawn) | < 70 |
| O=C(NC1CC1)c1ccc(CN(C2CC2)S(=O)(=O)c2ccccc2F)cc1 | < 70 |
| CC1S/C(=C\c2nc3ccccc3s2)NC1=O (stereo not drawn) | < 70 |
| C=CCn1c(C)cc(C(=O)CNC(=O)Nc2ccccc2)c1C | < 70 |
| COc1ccc(CN2CCCC(C(=O)c3ccc(C(F)(F)F)cc3)C2)c(O)c1 (stereo not drawn) | < 70 |
| COCc1nn2c3c(nnc2c1-c1ccccc1)C(=O)CC(c1ccccc1)C3 (stereo not drawn) | < 70 |
| O=C(Nc1ccc(N2CCCCC2)c(Cl)c1)c1ccc(Br)o1 | < 70 |
| c1ccc(SCc2ccc(-c3nc4ccccc4s3)cc2)nc1 | < 70 |
| Cc1ccc2cc(C3NC(=O)c4ccccc4N3)c(Cl)nc2c1 (stereo not drawn) | < 70 |
| Nc1ccc(-c2nc3cc(Oc4ccc(Oc5ccc6[nH]c(-c7ccc(N)cc7)nc6c5)cc4)ccc3[nH]2)cc1 | < 70 |
| c1ccc(Oc2ccc(-c3cc(N4CCNCC4)[nH]n3)cc2)cc1 | < 70 |
| CC1(C)OB(O)c2ccc(C3=NOC(c4cc(Cl)c(F)c(Cl)c4)(C(F)(F)F)C3)cc21 (stereo not drawn) | < 70 |
| Cc1ccccc1-n1c(SCC(=O)NC2CCCCC2)nc(O)cc1=O | < 70 |
| O=C(Cn1ncc(Cl)c(Cl)c1=O)N1N=C(c2ccco2)CC1c1cccs1 (stereo not drawn) | < 70 |
| NCCCC(N)(C(=O)O)C(F)F (stereo not drawn) | < 70 |
| Cc1ccc(O)c(C(=O)NCCc2ccc3c(c2)OCCO3)c1 | < 70 |
| CO[C@H]1/C=C/O[C@@]2(C)Oc3c(C)c(O)c4c(O)c(/c(=C/NN5CCN(C)CC5)c(O)c4c3C2=O)=N\C(=O)/C(C)=C\C=C/[C@H](C)[C@H](O)[C@@H](C)[C@@H](O)[C@@H](C)[C@H](OC(C)=O)[C@@H]1C | < 70 |
| Cc1ccc(F)cc1NC(=O)c1cc(Cl)ccc1Nc1ccccc1 | < 70 |
| CCOC(=O)c1c(C)n(-c2ccc(Cl)cc2)c2ccc(OC(=O)C=Cc3ccccc3)cc12 | < 70 |
| COc1ccccc1N1CCN(C(CNS(=O)(=O)c2ccc(Cl)cc2)c2cccnc2)CC1 (stereo not drawn) | < 70 |

| SMILES | growth inhibition at single dose [%] |
| --- | --- |
| CCc1ccc(Nc2cc(C)nc3nc(C)nn23)cc1 | < 70 |
| Cc1ccc2c(CSc3nc(N)c(C#N)cc3C#N)cc(=O)oc2c1C | < 70 |
| COc1ccc2nc(N)nc(C)c2c1 | < 70 |
| COCCNC(=O)C1CCN(C(C(=O)c2c[nH]c3ccccc23)c2ccccc2)CC1 (stereo not drawn) | < 70 |
| Cc1ccsc1C(=O)Nc1ccc(N2CCN(C)CC2)cn1 | < 70 |
| Cc1cc2ccccc2n1CC(=O)N1CC(C(=O)N2CCCCC2)Oc2ccccc21 (stereo not drawn) | < 70 |
| Nc1ncnc2[nH]nc(Cc3cccc4ccccc34)c12 | < 70 |
| O=C(c1cc(-c2ccccc2)n[nH]1)N1CCN(S(=O)(=O)c2ccccc2)CC1 | < 70 |
| O=C(Nc1cccc2c[nH]nc12)c1cnc(OCC(F)(F)F)c(Cl)c1 | < 70 |
| COc1ccccc1N1CCN(c2nc(=O)c3c([nH]2)CCC3)CC1 | < 70 |
| COC(=O)c1c(NC(=O)c2c(F)c(F)c(F)c(F)c2F)sc2c1CCCCC2 | < 70 |
| Cc1[nH]c(-c2ccccn2)nc(=O)c1CC(=O)NC1CCCCCCC1 | < 70 |
| CC1CC1C(=O)NC1CCN(CC2(c3ccccc3)CCCCC2)CC1 (stereo not drawn) | < 70 |
| CCc1cc(=O)n(C)c(SC(C)C(=O)Nc2ccc(F)cc2)n1 (stereo not drawn) | < 70 |
| O=c1ccc(-c2nc3c4c5c(sc4ncn3n2)CCCCC5)n[nH]1 | < 70 |
| CCc1nn(C)c(C(=O)NCc2ccc(Oc3ccc(C)cc3)cc2)c1Cl | < 70 |
| CCN(CC)c1cc(C)c2cc(NC(=O)c3cccc(OC)c3)ccc2n1 | < 70 |
| CCOC(=O)C1=CN(C)C=C(C(=O)OCC)C1c1cc(Br)c(OCC)c(OC)c1 | < 70 |
| CC(C)(C)C(=O)Nc1ccc(C(=O)Nc2cccc(-c3nc4ccccc4[nH]3)c2)cc1 | < 70 |
| O=C(Nc1ccccc1O)c1ccc(-c2ccc(Cl)cc2Cl)o1 | < 70 |
| Oc1ccc(Br)cc1CN1CCN(Cc2ccc(Cl)cc2)CC1 | < 70 |
| COc1ccccc1OCCCCn1c(C2CC2)nc2ccccc21 | < 70 |
| O=C(Nc1ccc(Cl)cc1C(=O)Nc1ccncc1)c1ccc(Cl)cc1Cl | < 70 |
| CCOC(=O)c1cnc2ccc(OC)cc2c1Nc1ccc(N2CCN(C)CC2)cc1 | < 70 |

| SMILES | growth inhibition at single dose [%] |
| --- | --- |
| CCOc1cc2c(cc1OCC)C(c1cc(C)c(O)c(C)c1)NCC2 (stereo not drawn) | < 70 |
| CCn1nc(C(=O)NCc2ccc(OC)cc2)c2c1CCN(C(=O)c1cc(C)n[nH]1)C2 | < 70 |
| Cn1/c(=N/C(=O)c2ccc(=O)[nH]c2)sc2ccccc21 | < 70 |
| CCOC(=O)c1cnc2ccc(CC)cc2c1O | < 70 |
| O=C(Nc1cccnc1)c1c(O)c2cccc3c2n(c1=O)CC3 | < 70 |
| O=C(Nc1cccc(C2=NCCN2)c1)Nc1cccc(C2=NCCN2)c1 | < 70 |
| CCOc1cc(CNC(C)C(O)c2ccccc2)cc(Cl)c1OCC (stereo not drawn) | < 70 |
| FC(F)(F)c1cnc(Sc2nnc(-c3ccncc3)o2)c(Cl)c1 | < 70 |
| Cc1c(C)c(C)c(S(=O)(=O)Nc2ccc3c[nH]nc3c2)c(C)c1C | < 70 |
| COc1ccc(C)cc1N1CC(C(=O)Nc2nc3ccccc3[nH]2)CC1=O (stereo not drawn) | < 70 |
| COc1ccc(CCn2nc(C(=O)NC3CC3)c3c2CCN(C(=O)c2cc(C)n[nH]2)C3)cc1 | < 70 |
| CC(C)(C)c1ccc(O)c(CNC2CCCCC2)c1 | < 70 |
| Cc1ccc(S(=O)(=O)Nc2ccc(CN3CCN(C(=O)c4cccc(C#N)c4)CC3)cc2)cc1 | < 70 |
| COc1ccc(CNC2CCN(c3ccc(NC(=O)c4cccc(Cl)c4)cc3)CC2)cc1OC | < 70 |
| CC(=O)Nc1nnc(SCc2c(C)cc(C(C)(C)C)cc2C)s1 | < 70 |
| Cc1ccc2[nH]c3c(NCCN(C)C)ncnc3c2c1 | < 70 |
| O=C(Nc1nnc(S)s1)c1cc(Br)ccc1Cl | < 70 |
| O=C(Nc1ccccc1O)c1ccc(Oc2cccc(C(=O)Nc3ccccc3O)c2)cc1 | < 70 |
| OC(CNC1CCCCC1)Cn1c2ccccc2c2ccccc21 (stereo not drawn) | < 70 |
| CCOc1c(Cl)cc(CNC(C)C(O)c2ccccc2)cc1OC (stereo not drawn) | < 70 |
| Cc1cc(/C=C/C(=O)Nc2nccs2)c(C)n1-c1ccccc1 | < 70 |
| CCN(CC)S(=O)(=O)c1ccc(C(C)NC(=O)c2nn(CC)c(=O)c3ccccc23)cc1 (stereo not drawn) | < 70 |
| CCCCc1c(C)nc2c(OC)cccc2c1O | < 70 |
| CCOc1ccc(-c2nonc2NC(=O)c2cccc(C)c2)cc1OCC | < 70 |

| SMILES | growth inhibition at single dose [%] |
| --- | --- |
| O=C(Cc1ccccc1)NC(c1ccc(Cl)cc1)c1c(O)ccc2ccccc12 (stereo not drawn) | < 70 |
| CNc1snc(C)c1C(=O)NCc1ccc(COCC(F)(F)F)cc1 | < 70 |
| COc1cc2c(cc1OC)C1=NNC(=O)C1=NC(C)(C)C2 | < 70 |
| Cc1nc(-c2cccc(NCc3ccccc3)c2)[nH]c1C | < 70 |
| Cc1ccccc1OCCSc1nc2ccc(NC(=O)c3cccs3)cc2s1 | < 70 |
| CCn1cnc2c(Nc3cc(F)cc(F)c3)nc(C#N)nc21 | < 70 |
| COc1nc(Nc2ccc(C(C)C)cc2)nc(OC)n1 | < 70 |
| CCCCCC(=O)N1c2ccccc2N=C2CC(c3ccc(OC)c(OC)c3)CC(O)=C2C1c1ccc(C(F)(F)F)cc1 (stereo not drawn) | < 70 |
| COc1cccc2c(C)nc(N=C(N)N)nc12 | < 70 |
| COc1ccc(Cl)cc1NC(=O)CN(C)C(=O)c1cnn(-c2ccccc2)n1 | < 70 |
| Cn1ccnc1Sc1ncnc2sccc12 | < 70 |
| NS(=O)(=O)c1cccc(-c2ccc3ncc(N4CCOCC4)nc3c2)c1 | < 70 |
| COc1ccc(C2C(C(=O)Nc3cccc(OC)c3)c3ccccc3C(=O)N2C2CCCCC2)cc1 (stereo not drawn) | < 70 |
| Nc1c(C(=O)c2ccc3c(c2)NC(=O)CO3)sc2c1c(=O)[nH]c(=O)n2Cc1ccccc1 | < 70 |
| CC(C)(C)c1ccc(C(=O)Nc2cc(F)ccc2F)s1 | < 70 |
| COc1cc(-c2nc(-c3ccc(Sc4ccccc4)cc3)c(-c3ccccc3)[nH]2)cc(OC)c1O | < 70 |
| CCCCn1c(N)c(N(C)CC(=O)Nc2scc(-c3ccccc3)c2C(=O)OCC)c(=O)[nH]c1=O | < 70 |
| Brc1ccc(-[n+]2nc(-c3ccccc3)nn2-c2nn[nH]n2)cc1 | < 70 |
| CCC(c1ccccc1)c1nn2c(-c3cccs3)nnc2s1 (stereo not drawn) | < 70 |
| CN(C)CCNc1cc(-c2ccccc2)nc2ccccc12 | < 70 |
| Cc1cc(N)c(N)cc1C | < 70 |
